{"source": "patent US7943657B2", "about": "“Imidoalkanpercarboxylic acids” (Solvay Solexis S.p.A., priority 2002, dated 2011)", "key": {"[1]": {"test": "Dissolution time of crystalline PAP dispersed in standard detergent solution (HPLC)", "format": "physicochemical", "conditions": "listed as crystals of PAP in beta form", "protocol": "Successive samples of liquid phase, carefully filtered on filter of 0.45 micron, are drawn and the PAP concentration in solution is determined by HPLC.\nSaid times are determined by drawing some curves reporting in ordinate the PAP concentration dissolved in the aqueous phase (determined by HPLC) and in abscissae the sample drawing time, taking as 100% the PAP concentration asymptotically obtained at infinite time.\nThe previous test is repeated by dispersing 70 mg of anhydrous crystalline PAP (base 100%), respectively of crystals and microcrystals (sizes lower than 10 micron) of PAP in beta form, obtained as from Examples 2B and 2A respectively, in one liter of aqueous solution, prepared as above, stirred and thermostated at the temperature of 25° C.\nSuccessive samples of liquid phase, carefully filtered on filter of 0.45 micron, are drawn, and the PAP concentration in solution is determined by HPLC."}, "[2]": {"test": "Phase separation and sedimentation of 5% aqueous PAP dispersion at rest in graduated cylinder", "format": "physicochemical", "conditions": "5% by weight PAP dispersion, rest at room temperature", "protocol": "In a beaker immersed in a thermostatic bath an aqueous dispersion of alpha crystalline PAP in demineralized water at 5% by weight of PAP is prepared, by adding to 473.5 ml of demineralized water at the temperature of 50° C., kept under stirring with an anchor and a magnetic stirrer, 500 ppm of antifoam DB 100 and 1,000 ppm of surfactant Hostapur® SAS and 26.50 g of crystalline PAP in alpha form, of technical degree (titre: 94.3%) having average sizes higher than 100 micron. After 10 minutes of stirring at 50° C., the beaker is removed from the thermostatic bath and the aqueous suspension is transferred in a graduated cylinder. It is let rest at room temperature in the graduated cylinder.\nAn aqueous dispersion of crystalline PAP in demineralized water at 5% by weight of PAP is prepared, as described in Example 2A, by adding to 471.9 ml of demineralized water 500 ppm of antifoam DB 100 and 1000 ppm of surfactant Hostapur® SAS and 28.1 g of crystalline PAP in beta form of technical degree (titre: 89%), having average sizes higher than 100 micron, in particular 80% of the particles being comprised between 100 and 200 micron. After 10 minutes of stirring at 50° C., the beaker is removed and the suspension is transferred into a graduated cylinder, as in Example 2A. […] The separation of the supernatant aqueous phase increases after 2 hours to more than 70% of the total volume."}}, "data": [{"compound": "O=C(CCCCCN1C(=O)c2ccccc2C1=O)OO", "note": "[Example 2B, ε-phthalimido-peroxyhexanoic acid]", "values": [{"measurement": "necessary time for the dissolution of 90% of the crystalline PAP initially dispersed", "setting": "[1]; 70 mg PAP in 1 liter water 10° F. hardness + 1.70 g detergent IEC type B, 25° C.", "result": 60, "unit": "min"}, {"measurement": "necessary time for the dissolution of 90% of the crystalline PAP initially dispersed", "setting": "[1]; 100 mg PAP in 1 liter water 10° F. hardness + 1.70 g detergent IEC type B, 40° C.", "result": 30, "unit": "min"}, {"measurement": "separation of supernatant aqueous phase", "setting": "[2]; after 10 minutes", "result": "60 % of the total volume"}, {"measurement": "separation of supernatant aqueous phase", "setting": "[2]; after 2 hours", "result": "more than 70 % of the total volume"}, {"measurement": "solid phase thickening / sedimentation on the cylinder bottom", "setting": "[2]; 2A after two hours and 48 hours, 2B after 10 minutes", "result": "sedimentation of a precipitate on the bottom"}]}]}
